This note sets out measurements from ChEMBL document CHEMBL5665443, “Enzyme Inhibitor Single Concentration assay results for EUbOPEN Chemogenomics Library” (2024).

Experiment [1] concerns the target N-glycosylase/DNA lyase (Homo sapiens) (UniProt O15527). The conditions noted are these: Hit No.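 Further: OGG1 cleavage of a quenched duplex DNA oligonucleotide, coupled to APE1 for strand incision, read as fluorescence at 594 nm.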
Description: Inhibition of OGG1 by quantifying inhibition of OGG1-mediated cleavage and dissociation of quenched duplex DNA oligonucleotides, measured as fluorescence at 594 nm. To generate a functional strand incision and increase turn-over this assay is coupled to APE1.
The target of experiment [2] is Uracil-DNA glycosylase (Homo sapiens) (UniProt P13051). The conditions noted are these: Hit No.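 Further: UNG excision on a quenched double-stranded DNA oligo probe, with APE1 added for strand incision and turnover, read as fluorescence at 594 nm as strands separate.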
Description: Inhibition of UNG by quantifying inhibition of UNG-mediated cleavage and dissociation of quenched duplex DNA oligonucleotides, measured as fluorescence at 594 nm. To generate a functional strand incision and increase turn-over this assay is coupled to APE1.
In experiment [3] the target is G/T mismatch-specific thymine DNA glycosylase (Homo sapiens) (UniProt Q13569). The conditions noted are these: Hit No.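 Further: human TDG cleavage of quenched duplex DNA oligonucleotides coupled to APE1, strand release read as fluorescence at 594 nm, inhibition of TDG activity.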
Description: Inhibition of TDG by quantifying inhibition of TDG-mediated cleavage and dissociation of quenched duplex DNA oligonucleotides, measured as fluorescence at 594 nm. To generate a functional strand incision and increase turn-over this assay is coupled to APE1.
Experiment [4] addresses Methyl-CpG-binding domain protein 4 (Homo sapiens) (UniProt O95243). Particulars: Hit No.
Description: Inhibition of MBD4 by quantifying inhibition of MBD4-mediated cleavage and dissociation of quenched duplex DNA oligonucleotides, measured as fluorescence at 594 nm. To generate a functional strand incision and increase turn-over this assay is coupled to APE1.
The target of experiment [5] is T1, Adenine DNA glycosylase (Homo sapiens) (UniProt Q9UIF7).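 Further: human MUTYH activity read as 594 nm fluorescence from cleavage and release of a quenched DNA duplex, coupled with APE1 for strand incision, lower signal meaning inhibition.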
T1 sequence (whole entry): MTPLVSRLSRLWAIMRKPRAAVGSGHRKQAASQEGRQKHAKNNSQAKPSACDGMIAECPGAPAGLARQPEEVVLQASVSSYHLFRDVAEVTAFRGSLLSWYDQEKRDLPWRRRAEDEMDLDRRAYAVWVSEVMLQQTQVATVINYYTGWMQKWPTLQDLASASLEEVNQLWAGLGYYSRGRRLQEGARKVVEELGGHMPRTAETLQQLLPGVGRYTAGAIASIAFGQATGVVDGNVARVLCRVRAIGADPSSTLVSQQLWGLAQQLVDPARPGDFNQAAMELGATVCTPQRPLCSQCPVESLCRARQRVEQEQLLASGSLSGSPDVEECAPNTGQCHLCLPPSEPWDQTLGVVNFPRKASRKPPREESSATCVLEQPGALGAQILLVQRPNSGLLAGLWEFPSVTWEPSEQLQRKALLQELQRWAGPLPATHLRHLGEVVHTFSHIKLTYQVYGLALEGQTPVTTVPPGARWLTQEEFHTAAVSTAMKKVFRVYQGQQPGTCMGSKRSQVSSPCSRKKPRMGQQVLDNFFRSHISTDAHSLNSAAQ
Particulars: Hit No.
Description: Inhibition of MUTYH by quantifying inhibition of MUTYH-mediated cleavage and dissociation of quenched duplex DNA oligonucleotides, measured as fluorescence at 594 nm. To generate a functional strand incision and increase turn-over this assay is coupled to APE1.

Experiment [6] addresses T2, Single-strand selective monofunctional uracil DNA glycosylase (Homo sapiens) (UniProt Q53HV7).
T2 sequence (whole entry): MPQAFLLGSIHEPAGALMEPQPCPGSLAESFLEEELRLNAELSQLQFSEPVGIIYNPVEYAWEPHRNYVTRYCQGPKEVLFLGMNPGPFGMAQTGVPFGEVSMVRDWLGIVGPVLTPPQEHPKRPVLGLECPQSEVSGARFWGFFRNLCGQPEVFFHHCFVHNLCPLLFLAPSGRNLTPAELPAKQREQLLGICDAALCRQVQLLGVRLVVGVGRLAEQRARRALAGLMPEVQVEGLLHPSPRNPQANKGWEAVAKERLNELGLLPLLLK
The conditions noted are these: Hit No.
Description: Inhibition of SMUG1 by quantifying inhibition of SMUG1-mediated cleavage and dissociation of quenched duplex DNA oligonucleotides, measured as fluorescence at 594 nm. To generate a functional strand incision and increase turn-over this assay is coupled to APE1.

The target in experiment [7] is T3, Endonuclease 8-like 2 (Homo sapiens) (UniProt Q969S2).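 Further: fluorescence at 594 nm reports NEIL2 cutting and release of a quenched double-stranded DNA oligo substrate, reduced signal read as inhibition.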
T3 sequence (whole entry): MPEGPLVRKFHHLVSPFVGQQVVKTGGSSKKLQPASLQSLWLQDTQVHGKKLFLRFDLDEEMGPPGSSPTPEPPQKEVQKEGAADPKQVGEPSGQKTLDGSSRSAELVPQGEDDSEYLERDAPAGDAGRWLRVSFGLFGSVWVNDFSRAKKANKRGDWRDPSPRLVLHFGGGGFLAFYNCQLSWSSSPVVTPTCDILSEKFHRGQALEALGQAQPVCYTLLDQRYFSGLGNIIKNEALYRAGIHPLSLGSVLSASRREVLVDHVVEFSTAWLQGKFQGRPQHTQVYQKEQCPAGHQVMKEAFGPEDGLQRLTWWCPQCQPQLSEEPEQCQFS
The conditions noted are these: Compound Concentration 10.0 uM, Hit No.
Description: Inhibition of NEIL2 by quantifying inhibition of NEIL2-mediated cleavage and dissociation of quenched duplex DNA oligonucleotides, measured as fluorescence at 594 nm.

The target in experiment [8] is Endonuclease 8-like 1 (Homo sapiens) (UniProt Q96FI4). Particulars: Hit No.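 Further: fluorescence at 594 nm from quenched duplex DNA oligonucleotides released by NEIL1 cleavage and strand separation, reported as reduction of this enzyme activity.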
Sequence of Endonuclease 8-like 1 (Homo sapiens) (Q96FI4 whole entry): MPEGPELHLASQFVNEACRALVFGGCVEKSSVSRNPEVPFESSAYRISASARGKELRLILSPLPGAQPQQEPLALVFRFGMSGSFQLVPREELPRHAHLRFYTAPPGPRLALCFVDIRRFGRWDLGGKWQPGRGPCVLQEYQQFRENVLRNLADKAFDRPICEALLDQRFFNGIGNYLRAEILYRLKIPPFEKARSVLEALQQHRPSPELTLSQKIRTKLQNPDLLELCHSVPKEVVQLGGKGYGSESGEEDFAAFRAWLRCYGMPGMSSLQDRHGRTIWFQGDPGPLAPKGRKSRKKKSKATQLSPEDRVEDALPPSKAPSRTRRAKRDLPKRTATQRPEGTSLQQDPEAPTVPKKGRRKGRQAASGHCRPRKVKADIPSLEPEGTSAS
Description: Inhibition of NEIL1 by quantifying inhibition of NEIL1-mediated cleavage and dissociation of quenched duplex DNA oligonucleotides, measured as fluorescence at 594 nm.

Sequence of N-glycosylase/DNA lyase (Homo sapiens) (O15527 whole entry): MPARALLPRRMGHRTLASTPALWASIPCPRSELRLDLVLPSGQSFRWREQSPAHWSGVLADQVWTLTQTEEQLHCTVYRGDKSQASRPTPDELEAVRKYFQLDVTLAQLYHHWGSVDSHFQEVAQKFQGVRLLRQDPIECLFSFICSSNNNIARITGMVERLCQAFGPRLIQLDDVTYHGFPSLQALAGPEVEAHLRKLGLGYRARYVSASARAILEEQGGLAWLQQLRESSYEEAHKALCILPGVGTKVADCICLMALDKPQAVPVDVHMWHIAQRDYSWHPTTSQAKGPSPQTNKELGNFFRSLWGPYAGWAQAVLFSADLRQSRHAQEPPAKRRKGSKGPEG
Sequence of Methyl-CpG-binding domain protein 4 (Homo sapiens) (O95243 whole entry, the tested form may be a part): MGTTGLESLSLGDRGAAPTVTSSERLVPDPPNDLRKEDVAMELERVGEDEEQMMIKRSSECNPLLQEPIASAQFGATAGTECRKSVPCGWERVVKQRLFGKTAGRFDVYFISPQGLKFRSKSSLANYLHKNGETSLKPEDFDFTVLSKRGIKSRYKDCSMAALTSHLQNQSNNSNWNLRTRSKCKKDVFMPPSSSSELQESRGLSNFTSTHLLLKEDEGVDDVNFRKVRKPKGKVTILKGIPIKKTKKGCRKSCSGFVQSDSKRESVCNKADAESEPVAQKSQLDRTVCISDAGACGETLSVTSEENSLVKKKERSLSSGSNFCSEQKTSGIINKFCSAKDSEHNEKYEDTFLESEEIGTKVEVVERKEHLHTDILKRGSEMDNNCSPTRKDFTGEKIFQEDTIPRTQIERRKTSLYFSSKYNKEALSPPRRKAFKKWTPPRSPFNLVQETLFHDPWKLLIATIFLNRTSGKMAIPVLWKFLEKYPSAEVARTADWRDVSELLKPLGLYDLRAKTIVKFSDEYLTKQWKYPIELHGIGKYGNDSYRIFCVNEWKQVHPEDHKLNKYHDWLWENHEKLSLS
Sequence of G/T mismatch-specific thymine DNA glycosylase (Homo sapiens) (Q13569 whole entry, the tested form may be a part): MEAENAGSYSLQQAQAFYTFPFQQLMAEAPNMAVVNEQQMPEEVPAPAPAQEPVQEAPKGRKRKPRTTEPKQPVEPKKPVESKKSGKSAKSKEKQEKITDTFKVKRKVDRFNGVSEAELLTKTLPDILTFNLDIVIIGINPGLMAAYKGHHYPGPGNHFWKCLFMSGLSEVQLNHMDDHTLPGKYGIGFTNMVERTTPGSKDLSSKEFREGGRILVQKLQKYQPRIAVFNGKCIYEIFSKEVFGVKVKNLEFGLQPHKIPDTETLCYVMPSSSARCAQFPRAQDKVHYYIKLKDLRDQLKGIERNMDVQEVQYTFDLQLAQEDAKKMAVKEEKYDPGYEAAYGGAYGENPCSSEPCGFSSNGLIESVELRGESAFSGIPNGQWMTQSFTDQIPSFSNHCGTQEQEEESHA
Sequence of Uracil-DNA glycosylase (Homo sapiens) (P13051 whole entry): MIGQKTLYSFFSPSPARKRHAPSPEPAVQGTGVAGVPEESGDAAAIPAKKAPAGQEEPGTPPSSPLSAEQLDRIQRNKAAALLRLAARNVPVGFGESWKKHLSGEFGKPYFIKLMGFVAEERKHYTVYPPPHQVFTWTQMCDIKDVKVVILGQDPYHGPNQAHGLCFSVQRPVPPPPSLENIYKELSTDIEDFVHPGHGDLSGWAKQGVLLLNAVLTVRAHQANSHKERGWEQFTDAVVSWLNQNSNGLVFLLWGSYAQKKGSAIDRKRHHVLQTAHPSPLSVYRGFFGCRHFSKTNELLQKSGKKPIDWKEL

With `CCC(=O)N[C@H]1CC[C@@H](C(=O)N(C)c2ccc(-c3nc4ccccc4o3)cc2)C1`, the inhibition – broadly, the relative decrease from the control value, in per cent – in experiment [1] (Compound Concentration 10.0 uM) was -8.13%; in experiment [2] (Compound Concentration 10.0 uM), -2.88%; in experiment [3] (Compound Concentration 10.0 uM) it was 41.7%; in experiment [4] (Compound Concentration 10.0 uM) it was 62.4%; in experiment [5] (Compound Concentration 10.0 uM), 8.31%; in experiment [6] (Compound Concentration 10.0 uM), 9.01%. For the same molecule, the inhibition in experiment [7] was determined as 8.7%.

`O=C(Nc1cccnn1)N1CC(C/C=C/c2cncc(Oc3ccc(C(F)(F)F)cn3)n2)C1`: the inhibition in experiment [1] (Compound Concentration 10.0 uM) was -7.39%; in experiment [2] (Compound Concentration 10.0 uM) it was -1.71%; in experiment [3] (Compound Concentration 10.0 uM), 97.9%; in experiment [4] (Compound Concentration 10.0 uM) it was 63.3%; in experiment [5] (Compound Concentration 10.0 uM), -2.62%; in experiment [6] (Compound Concentration 10.0 uM) it was 18.1%.

On to `CN([C@@H]1CCc2c(CC(=O)O)c3cc(S(C)(=O)=O)ccc3n2C1)S(=O)(=O)c1ccc(F)cc1`, for which the inhibition is -10% in experiment [1] (Compound Concentration 10.0 uM); 2.31% in experiment [2] (Compound Concentration 10.0 uM); 46% in experiment [3] (Compound Concentration 10.0 uM); 53.8% in experiment [4] (Compound Concentration 10.0 uM); -3.16% in experiment [5] (Compound Concentration 10.0 uM); 11.2% in experiment [6] (Compound Concentration 10.0 uM).

As to `N#Cc1ccc(Nc2ccc3[nH]c(=O)[nH]c3c2)c(Cl)c1`, the inhibition in experiment [1] (Compound Concentration 1.0 uM) was -3.21%; in experiment [2] (Compound Concentration 1.0 uM) it was 1.6%; in experiment [3] (Compound Concentration 1.0 uM), 38.3%; in experiment [4] (Compound Concentration 1.0 uM), 63.1%; in experiment [5] (Compound Concentration 1.0 uM), 7.43%; in experiment [6] (Compound Concentration 1.0 uM), 11.9%.

Take `CC(C)(O)c1cncc(-c2nc3ccc(F)cc3n2C2CC2)c1`: the inhibition in experiment [1] (Compound Concentration 10.0 uM) was 8.25%; in experiment [2] (Compound Concentration 10.0 uM) it was -3.32%; in experiment [3] (Compound Concentration 10.0 uM) it was 50.2%; in experiment [4] (Compound Concentration 10.0 uM), 59.6%; in experiment [5] (Compound Concentration 10.0 uM), 11.5%; in experiment [6] (Compound Concentration 10.0 uM), 1.08%.

`Cc1cnc(-c2cc(Cl)ccc2F)cc1-n1c(=O)n(CC(N)=O)c2ccccc21`: the inhibition in experiment [1] (Compound Concentration 10.0 uM) is -7.14%; in experiment [2] (Compound Concentration 10.0 uM), 1.32%; in experiment [8] (Compound Concentration 10.0 uM), -5.78%; in experiment [3] (Compound Concentration 10.0 uM), 23.2%; in experiment [4] (Compound Concentration 10.0 uM), 36.9%; in experiment [5] (Compound Concentration 10.0 uM) it was -6.05%. For the same molecule, the inhibition in experiment [6] (Compound Concentration 10.0 uM) worked out at 7.03%.

In the case of `O=C(Nc1ccc(-c2ccnc(Nc3ccc(N4CCOCC4)cc3)n2)cc1)[C@@H]1CCCN1`, the inhibition in experiment [1] (Compound Concentration 1.0 uM) is 1.3%; in experiment [2] (Compound Concentration 1.0 uM), 3.18%; in experiment [8] (Compound Concentration 1.0 uM), 5.95%; in experiment [3] (Compound Concentration 1.0 uM), 58.2%; in experiment [4] (Compound Concentration 1.0 uM), -0.777%; in experiment [5] (Compound Concentration 1.0 uM), 14.9%. Also, the inhibition in experiment [6] (Compound Concentration 1.0 uM) was found to be 24.9%.

As to `CCCn1c(=O)c2[nH]c(-c3cnn(Cc4cccc(C(F)(F)F)c4)c3)nc2n(CC)c1=O`, the inhibition in experiment [1] (Compound Concentration 10.0 uM) is -1.7%; in experiment [8] (Compound Concentration 10.0 uM), -6.43%; in experiment [3] (Compound Concentration 10.0 uM), -4.73%; in experiment [4] (Compound Concentration 10.0 uM) it was -7.87%; in experiment [5] (Compound Concentration 10.0 uM), -1.26%; in experiment [6] (Compound Concentration 10.0 uM) it was 4.62%. Moreover, in experiment [7], the inhibition was -0.234%.

As to `Cc1ccc(Cn2nc(C(=O)N[C@@H]3C(C)(C)[C@@H]4CC[C@@]3(C)C4)cc2-c2ccc(Cl)c(C)c2)cc1`, the inhibition in experiment [1] (Compound Concentration 10.0 uM) is -0.971%; in experiment [8] (Compound Concentration 10.0 uM) it was 10.9%; in experiment [3] (Compound Concentration 10.0 uM) it was 21.7%; in experiment [4] (Compound Concentration 10.0 uM) it was -2.75%; in experiment [5] (Compound Concentration 10.0 uM) it was -0.363%; in experiment [6] (Compound Concentration 10.0 uM), -0.0818%. In experiment [7], the inhibition turned out to be 7%.

On to `O=C(Cc1ccccc1)Nc1nnc(N2C[C@H]3C[C@@H]2CN3c2cccnn2)s1`, for which the inhibition in experiment [1] (Compound Concentration 1.0 uM) is 0.672%; in experiment [2] (Compound Concentration 1.0 uM), 2.12%; in experiment [8] (Compound Concentration 1.0 uM) it was 2.13%; in experiment [3] (Compound Concentration 1.0 uM) it was 47.1%; in experiment [4] (Compound Concentration 1.0 uM) it was 62%; in experiment [5] (Compound Concentration 1.0 uM) it was -1.58%. Also, in experiment [6] (Compound Concentration 1.0 uM), the inhibition came to 13.8%.

As for `Cc1c(NC(=O)c2cc(C(N)=O)nc3cc(F)ccc23)c(C(F)(F)F)nn1Cc1ccc(C(C)(C)C)cc1`, the inhibition was -8.67% in experiment [1] (Compound Concentration 1.0 uM); 0.116% in experiment [2] (Compound Concentration 1.0 uM); -8.32% in experiment [8] (Compound Concentration 1.0 uM); 55.8% in experiment [3] (Compound Concentration 1.0 uM); 59.5% in experiment [4] (Compound Concentration 1.0 uM); 11.6% in experiment [5] (Compound Concentration 1.0 uM). The inhibition in experiment [6] (Compound Concentration 1.0 uM) amounted to 16.4%.
